Molecules are shown by their SMILES.

The target in assay [1] is T1, human PHD2 (PHD2181-417) (Homo sapiens, UniProt Q9GZT9).
T1 construct: Smt (SUMO) tag (cleaved yes); made in house; host or cells: E. coli BL21 (pBAD vector)
Put plainly: PHD enzymatic assay ([14C]-succinic acid production). The class given is biochemical. As to conditions: PHD2181-417, HIF-1α peptide 10 μM, average of results; for IC50: read-out: Enzyme pIC50 (converted). Here is the method: Protein production was achieved by expression in BL21 cells grown in Terrific Broth containing 100 μg/ml ampicillin. Cell cultures were inoculated at 37° C. and grown to an OD600 of 0.8. Cultures were induced with 0.1% arabinose and grown overnight at 20° C. with continuous shaking at 225 rpm. Cells were then harvested by centrifugation and stored at −80° C. Cell pellets were suspended in Buffer A (50 mM Tris-HCl pH 7.2, 100 mM NaCl, 100 mM L-arginine, 1 mM TCEP, 0.05% (w/v) NP-40, 50 mM imidazole) followed by the addition of lysozyme and benzonase. Cells were lysed by sonication and the lysate was cleared by centrifugation (15,000 rpm, 90 min, 4° C.). The protein was purified by nickel affinity chromatography using a HisTrap Crude FF column (GE Healthcare). Samples were eluted in Buffer A with a 50-200 mM imidazole gradient. […] The flow-through was then dialyzed into 50 mM MES pH 6.0, 1 mM TCEP, 5 mM NaCl for ion exchange chromatography on a HiTrap SP Cation Exchange column (GE Healthcare). […] Fractions were pooled for further purification by size exclusion chromatography over a Superdex 75 Size Exclusion Column (GE Healthcare). Final protein was concentrated to 4 mg/ml and dialyzed in 10 mM PIPES pH 7.0, 100 mM NaCl, 0.5 mM TCEP.
(10 μM, California Peptide Research Inc., Napa, Calif.), and [5-^14C]-2-oxoglutaric acid (50 mCi/mmol, Moravek Chemicals, Brea, Calif.) in reaction buffer (40 mM Tris-HCl, pH 7.5, 0.4 mg/ml catalase, 0.5 mM DTT, 1 mM ascorbate) for 10 minutes. The reaction was stopped by addition of 50 μl of 70 mM H3PO4 and 50 μl of 500 mM NaH2PO4, pH3.2. Detection of [^14C]-succinic acid was achieved by separating from [5-^14C]-2-oxoglutaric acid by incubating the reaction mixture with 100 μl of 0.16 M DNP prepared in 30% perchloric acid. Next, 50 μl of unlabeled 20 mM 2-oxoglutaric acid/20 mM succinic acid, serving as carrier for the radioactivity, was added to the mixture, and was allowed to proceed for 30 minutes at room temperature. The reaction was then incubated with 50 μl of 1 M 2-oxoglutaric acid for 30 additional minutes at room temperature to precipitate the excess DNP. The reaction was then centrifuged at 2800×g for 10 minutes at room temperature to separate [^14C]-succinic acid in the supernatant from the precipitated [^14C]-dinitrophenylhydrazone. Fractions of the supernatant (400 μl) were counted using a beta counter (Beckman Coulter, Fullerton, Calif.).

Assay [2] relates to Hep-3B cells. The assay can be described thus: Cellular assay: erythropoietin secretion in Hep-3B cells. As to conditions: 100 μM compound, 24 hours, percent of EPO secretion relative to assay control compound 7-[(4-Chloro-phenyl)-(5-methyl-isoxazol-3-ylamino)-methyl]-quinolin-8-ol; for Emax at 100 µM: Homo sapiens, Hep3B, read-out: Cellular % EPO Stimulation. In kind it is cell-based, human. Here is the method:
Hep-3B cells (ATCC, Manassas, Va.) were plated in 96-well plates at 20,000 cells per well in 100 μl of DMEM containing 10% fetal bovine serum, 1% non-essential amino acids, 50 IU/mL of penicillin and 50 μg/mL of streptomycin (all cell culture reagents from Invitrogen, Carlsbad, Calif.). Twenty-four hours after plating, compounds were added and incubated for an additional 24 hours. All compounds were tested under saturating conditions with final compound concentrations at 100 μM. Fifty microliters of the supernatant was then transferred to a human Hypoxia assay kit (Meso-Scale Discovery, Gaithersburg, Md.). Erythropoietin in the supernatant was detected according to the manufacturer's instructions as follows. EPO detection plates were blocked with 3% BSA in PBS overnight and 50 μl of the supernatant was incubated at room temperature in an orbital shaker for 2 h. Twenty-five microliters of 0.5 μg/ml anti-EPO detection antibody was added for 2 hours at room temperature in an orbital shaker. After 3 washes in PBS, 150 μl of 1× read buffer is added and the plate is then read on the MSD SECTOR instrument.

T1 sequence (Q9GZT9 181-417): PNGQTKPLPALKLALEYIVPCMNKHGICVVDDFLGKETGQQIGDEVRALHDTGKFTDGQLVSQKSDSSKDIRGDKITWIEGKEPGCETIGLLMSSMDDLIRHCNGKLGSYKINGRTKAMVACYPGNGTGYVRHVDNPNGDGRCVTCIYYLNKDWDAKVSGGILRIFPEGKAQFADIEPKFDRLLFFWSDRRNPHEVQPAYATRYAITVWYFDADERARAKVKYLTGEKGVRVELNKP

In the case of `Cc1ccccc1CNc1ccc2nc(-n3cc(C(=O)O)cn3)[nH]c(=O)c2c1` [Example 173, 1-[6-(2-Methyl-benzylamino)-4-oxo-3,4-dihydro-quinazolin-2-yl]-1H-pyrazole-4-carboxylic acid], the IC50 in assay [1] was 20 nM. Also, in assay [2], the Emax at 100 µM stood at 101%.
Taken in the same sequence, the figures for `COc1cccc(-c2ccc3nc(-n4cc(C(=O)O)cn4)[nH]c(=O)c3c2)c1` [Example 199, 1-[6-(3-Methoxy-phenyl)-4-oxo-3,4-dihydro-quinazolin-2-yl]-1H-pyrazole-4-carboxylic acid] were 25.1 nM and 119%.
Taken in the same sequence, the figures for `Cc1cccc(C)c1NC(=O)c1ccc2nc(-n3cc(C(=O)O)cn3)[nH]c(=O)c2c1` [Example 163, 1-[6-(2,6-Dimethyl-phenylcarbamoyl)-4-oxo-3,4-dihydro-quinazolin-2-yl]-1H-pyrazole-4-carboxylic acid] were 39.8 nM and 14%.
With `NC(CO)(CO)CO.O=C(O)c1cnn(-c2nc3cc(C4CCOCC4)ccc3c(=O)[nH]2)c1` [Example 67, 1-[4-Oxo-7-(tetrahydro-pyran-4-yl)-3,4-dihydro-quinazolin-2-yl]-1H-pyrazole-4-carboxylic acid tris(hydroxymethyl)aminomethane salt], in assay [1], the “Enzyme pIC50” value is 7.8. Also, the “Cellular % EPO Stimulation” value in assay [2] is 18%.
As for `N#Cc1ccccc1CNc1ccc2nc(-n3cc(C(=O)O)cn3)[nH]c(=O)c2c1` [Example 177, 1-[6-(2-Cyano-benzylamino)-4-oxo-3,4-dihydro-quinazolin-2-yl]-1H-pyrazole-4-carboxylic acid], the IC50 in assay [1] is 50.1 nM. The Emax at 100 µM in assay [2] was 13%.
Taken in the same sequence, the figures for `COc1cccc(C2CCCN(c3cc4c(=O)[nH]c(-n5cc(C(=O)O)cn5)nc4cc3Cl)C2)c1` (racemic) [Example 86, (rac)-1-{7-Chloro-6-[3-(3-methoxy-phenyl)-piperidin-1-yl]-4-oxo-3,4-dihydro-quinazolin-2-yl}-1H-pyrazole-4-carboxylic acid] were 25.1 nM and 71%.
Taken in the same sequence, the figures for `Cc1ccc(Oc2cc3c(=O)[nH]c(-n4cc(C(=O)O)cn4)nc3cc2C)cc1C` [Example 92, 1-[6-(3,4-dimethyl-phenoxy)-7-methyl-4-oxo-3,4-dihydro-quinazolin-2-yl]-1H-pyrazole-4-carboxylic acid] were 20 nM and 137%.
The corresponding values for `Cc1cccc(C)c1CNc1ccc2nc(-n3cc(C(=O)O)cn3)[nH]c(=O)c2c1` [Example 175, 1-[6-(2,6-Dimethyl-benzylamino)-4-oxo-3,4-dihydro-quinazolin-2-yl]-1H-pyrazole-4-carboxylic acid] are 31.6 nM and 97%.
As to `O=C(O)c1cnn(-c2nc3c(-c4ccccc4)cccc3c(=O)[nH]2)c1` [Example 111, 1-(4-Oxo-8-phenyl-3,4-dihydro-quinazolin-2-yl)-1H-pyrazole-4-carboxylic acid], the IC50 in assay [1] was 126 nM. In addition, the Emax at 100 µM in assay [2] came out at 24%.
The corresponding values for `O=C(O)c1cnn(-c2nc3cc(-c4cccc(Cl)c4)ccc3c(=O)[nH]2)c1` [Example 186, 1-[7-(3-Chloro-phenyl)-4-oxo-3,4-dihydro-quinazolin-2-yl]-1H-pyrazole-4-carboxylic acid] are 50.1 nM and 26%.
Taken in the same sequence, the figures for `O=C(O)c1cnn(-c2nc3cc(Cl)cc(Cl)c3c(=O)[nH]2)c1` [Example 132, 1-(5,7-Dichloro-4-oxo-3,4-dihydro-quinazolin-2-yl)-1H-pyrazole-4-carboxylic acid] were 126 nM and 16%.
Consider `O=C(O)c1cnn(-c2nc(=O)c3cc(Sc4ccccc4)c(Cl)cc3[nH]2)c1` [Example 25, 1-(7-Chloro-4-oxo-6-phenylsulfanyl-1,4-dihydro-quinazolin-2-yl)-1H-pyrazole-4-carboxylic acid], for which the IC50 in assay [1] was 39.8 nM. Moreover, the Emax at 100 µM in assay [2] was found to be 68%.
The corresponding values for `O=C(O)c1cnn(-c2nc3cc4c(cc3c(=O)[nH]2)CCCC4)c1` [Example 143, 1-(4-Oxo-3,4,6,7,8,9-hexahydro-benzo[g]quinazolin-2-yl)-1H-pyrazole-4-carboxylic acid] are 31.6 nM and 75%.
The corresponding values for `O=C(O)c1cnn(-c2nc3ccc(Oc4cccc(Cl)c4Cl)cc3c(=O)[nH]2)c1` [Example 60, 1-[6-(2,3-dichloro-phenoxy)-4-oxo-3,4-dihydro-quinazolin-2-yl]-1H-pyrazole-4-carboxylic acid] are 31.6 nM and 70%.
In the case of `O=C(O)c1cnn(-c2nc3ccc(-c4ccccc4F)cc3c(=O)[nH]2)c1` [Example 195, 1-[6-(2-Fluoro-phenyl)-4-oxo-3,4-dihydro-quinazolin-2-yl]-1H-pyrazole-4-carboxylic acid], the IC50 in assay [1] is 25.1 nM. Further, the Emax at 100 µM in assay [2] came to 100%.
The corresponding values for `COc1cc(Oc2ccc3nc(-n4cc(C(=O)O)cn4)[nH]c(=O)c3c2)cc(OC)c1OC` [Example 28, 1-[4-Oxo-6-(3,4,5-trimethoxy-phenoxy)-3,4-dihydro-quinazolin-2-yl]-1H-pyrazole-4-carboxylic acid] are 20 nM and 9%.
Taken in the same sequence, the figures for `O=C(O)c1cnn(-c2nc3cc(F)c(Oc4cccc5ccccc45)cc3c(=O)[nH]2)c1` [Example 57, 1-[7-Fluoro-6-(naphthalen-1-yloxy)-4-oxo-3,4-dihydro-quinazolin-2-yl]-1H-pyrazole-4-carboxylic acid] were 20 nM and 135%.
In the case of `COc1cc2nc(-n3cc(C(=O)O)cn3)[nH]c(=O)c2cc1OC` [Example 17, 1-(6,7-Dimethoxy-4-oxo-3,4-dihydro-quinazolin-2-yl)-1H-pyrazole-4-carboxylic acid], in assay [1], the IC50 was 200 nM. Moreover, the Emax at 100 µM in assay [2] was determined as 33%.
The corresponding values for `O=C(O)c1cnn(-c2nc3c(C(F)(F)F)cccc3c(=O)[nH]2)c1` [Example 16, 1-(4-Oxo-8-trifluoromethyl-3,4-dihydro-quinazolin-2-yl)-1H-pyrazole-4-carboxylic acid] are 251 nM and 16%.
Turning to `O=C(O)c1cnn(-c2nc3cc(Cl)c(N4CCc5ccccc5C4)cc3c(=O)[nH]2)c1` [Example 84, 1-[7-Chloro-6-(3,4-dihydro-1H-isoquinolin-2-yl)-4-oxo-3,4-dihydro-quinazolin-2-yl]-1H-pyrazole-4-carboxylic acid], the IC50 in assay [1] was 20 nM. For the same compound, in assay [2], the Emax at 100 µM was 101%.
`Cc1ccccc1-c1ccc2c(=O)[nH]c(-n3cc(C(=O)O)cn3)nc2c1` [Example 188, 1-(4-Oxo-7-o-tolyl-3,4-dihydro-quinazolin-2-yl)-1H-pyrazole-4-carboxylic acid]: in assay [1], the IC50 is 79.4 nM. Besides, the Emax at 100 µM in assay [2] was determined as 11%.
The corresponding values for `O=C(O)c1cnn(-c2nc3cc(Cl)ccc3c(=O)[nH]2)c1` [Example 1, 1-(7-Chloro-4-oxo-3,4-dihydro-quinazolin-2-yl)-1H-pyrazole-4-carboxylic acid] are 50.1 nM and 37%.
